Reference: patent US8809316B2, “Use of immunosuppressant compounds in a new indication” (Novartis AG, priority 2008, dated 2014)

Legend:
Type in all cases: in vivo, Lewis rats
[1] = system: sciatic nerves of EAN rats; experiment: Luxol Fast Blue (LFB) staining, mean histological score of sciatic nerves of EAN rats; details: for Mean Histological Score: LFB staining, scale 0-3, sciatic nerves, Day 16
Experimental: (§1) To evaluate inflammatory cell infiltration and pathological changes in the PNS, five compound A-treated rats (at both concentrations) and five control EAN rats from Day 16 were sacrificed. Rats were deeply anaesthetized with ether and perfused intracardially with 4° C., 4% paraformaldehyde in PBS. Left and right sciatic nerves were quickly removed and post-fixed in 4% formaldehyde overnight at 4° C. Sciatic nerves were cut into two equally long segments, embedded in paraffin, serially sectioned (3 μm) and mounted on silan-covered slides.
The routine Luxol Fast Blue (LFB) staining was applied to show myelin. Histological changes between Compound A and control EAN rats were compared by an established semi-quantitative method. Briefly, four cross-sections from root and middle level of both sides of EAN rats were analyzed. All perivascular areas present in cross-sections were evaluated by two observers unaware of the treatment, and the degree of pathological alteration was graded semiquantitatively on the following scale: 0=normal perivascular area; 1=mild cellular infiltrate adjacent to the vessel; 2=cellular infiltration plus demyelination in immediate proximity to the vessel; and 3=cellular infiltration and demyelination throughout the section. Results were given as mean histological score (Hartung et al., 1988).

Body weight of EAN rats = experiment: Body weight of EAN rats
[2] = system: Experimental Autoimmune Neuritis (EAN) rats; experiment: EAN clinical (neurological) score, suppressive treatment
[3] = system: sciatic nerves of EAN rats; experiment: Immunohistochemistry of inflammatory cell infiltration in sciatic nerves of EAN rats; details: for Area of immunoreactivity/area of sciatic nerves (%) for B cells (OX22+) / Area of immunoreactivity/area of sciatic nerves (%) for Macrophages (ED1+) / Area of immunoreactivity/area of sciatic nerves (%) for T cells (W3/13+): Day 16, EAN rats
Experimental: as §1
After dewaxing, cross-sections of sciatic nerves were boiled (in a 600 W microwave oven) for 15 min in citrate buffer (2.1 g sodium citrate/L, pH 6). Endogenous peroxidase was inhibited with 1% H2O2 in methanol for 15 min. Sections were incubated with 10% normal pig serum (Biochrom, Berlin, Germany) to block non-specific binding of immunoglobulins and then with the following monoclonal antibodies: W3/13 (1:50; Serotec, Oxford, UK) for T lymphocytes, OX22 (1:200; Serotec, Oxford, UK) for B cells, ED1 for activated macrophages (1:100; Serotec, Oxford, UK). Antibody binding to tissue sections was visualized with biotinylated IgG F(ab)2 secondary antibody fragments (rabbit anti-mouse or rabbit anti-goat; 1:400; DAKO, Hamburg, Germany). Subsequently, sections were incubated with a Streptavidin-Avidin-Biotin complex (DAKO, Hamburg, Germany), followed by development with diaminobenzidine (DAB) substrate (Fluka, Neu-Ulm, Germany). Finally, sections were counterstained with Maier's Hemalum.
To evaluate immunostaining data, the percentages of areas of immunoreactivity (IR) to areas of sciatic nerve cross-sections were calculated. Images of sciatic nerve cross-sections were captured under 50× magnification using Nikon Coolscope (Nikon, Dusseldorf, Germany) with fixed parameters. Images were analyzed using MetaMorph Offline 7.1 (Molecular Devices, Toronto, Canada). Areas of IR were selected by colour threshold segmentation and all parameters were fixed for all images. Areas of sciatic nerve cross-sections were manually selected. For each EAN rat, four cross-sections from root and middle levels of both sides were analyzed. Results were given as arithmetic means of percentages of areas of IR to areas of sciatic nerve cross-sections and standard errors of means (SEM).

[4] = 3 mg/kg intragastric once daily
[5] = 10 mg/kg intragastric once daily

## CCc1cc(/C(C)=N/OCc2ccc(C3CCCCC3)c(C(F)(F)F)c2)ccc1CN1CC(C(=O)O)C1 [Compound A, 1-{4-[1-(4-Cyclohexyl-3-trifluoromethyl-benzyloxyimino)-ethyl]-2-ethyl-benzyl}-azetidine-3-carboxylic acid]
[1]; 3 mg/kg
  Mean Histological Score: 0.51
[1]; 10 mg/kg
  Mean Histological Score: 0.25
[1]; Compound A-treated versus control EAN rats
  Mean histological scores measured by LFB staining (in words): markedly lower
Body weight of EAN rats; higher dosage suspension (10 mg/kg), FIG. 2B
  Weight loss during disease (in words): small weight loss between days 11 and 12, followed by weight gain
Body weight of EAN rats; lower compound A suspension (3 mg/kg), Day 11 to 16, FIG. 2B
  Weight loss during disease (in words): reduced level of weight loss
[2]; days from immunisation, control maximum at Day 13
  Day of maximal neurological scores: 15 Day
[2]; days from immunisation, control recovered by Day 22
  Day of full recovery of rats: ≤ 19 days
[2]; days from immunisation, oral once daily until Day 22, control onset Day 9
  Day at which (greatly reduced) neurological signs were seen: 14 Day
[2]; relative to the water/cmc vehicle, FIGS. 1A and 1B
  Effect on clinical signs of EAN (in words): almost prevented the development of clinical signs of EAN
[3]; [4]
  Area of immunoreactivity/area of sciatic nerves (%) for B cells (OX22+): 0.025%
  Area of immunoreactivity/area of sciatic nerves (%) for Macrophages (ED1+): 0.20%
  Area of immunoreactivity/area of sciatic nerves (%) for T cells (W3/13+): 0.08%
[3]; [5]
  Area of immunoreactivity/area of sciatic nerves (%) for B cells (OX22+): 0.021%
  Area of immunoreactivity/area of sciatic nerves (%) for Macrophages (ED1+): 0.11%
  Area of immunoreactivity/area of sciatic nerves (%) for T cells (W3/13+): 0.04%
[3]; EAN rats, Day 16
  Infiltration of T cells, B cells and macrophages in sciatic nerves (in words): significantly suppressed infiltration
